pIC50: −log10 of the molar value.
Legend:
Assay in all cases: Cell proliferation assay (CellTiter-Glo)
Format in all cases: cell-based
BaF3 EML4-ALK = target: T1, BaF3 EML4-ALK (Homo sapiens, UniProt Q9UM73); details: anti-cell proliferation, 72 hours
T1 construct: The EML4-ALK gene (variant 1) was synthesized at GenScript and cloned into pCDH-CMV-MCS-EF1-Puro plasmid (System Biosciences, Inc); fused on or other part: EML4 N-terminal part (variant 1: exons 1-13, with the coiled-coil that oligomerises the fusion) fused to the intracellular part of ALK, which contains the kinase domain; Q9HC35 (Echinoderm microtubule-associated protein-like 4)
Description: Cloning and Ba/F3 or NIH3T3 Stable Cell Line Creation
The EML4-ALK gene (variant 1) was synthesized at GenScript and cloned into pCDH-CMV-MCS-EF1-Puro plasmid (System Biosciences, Inc). Ba/F3-EML4-ALK wild type were generated by transducing Ba/F3 cells with lentivirus containing EML4-ALK wide type. Stable cell lines were selected by puromycin treatment, followed by IL-3 withdrawal. Briefly, 5×10^6 Ba/F3 cells were transduced with lentivirus supernatant in the presence of 8 μg/mL protamine sulfate. The transduced cells were subsequently selected with 1 μg/mL puromycin in the presence of IL3-containing medium RPMI1640, plus 10% FBS. After 10-12 days of selection, the surviving cells were further selected for IL3 independent growth.
(§1) Cell Proliferation Assays:
(§2) Two thousand cells per well were seeded in 384 well white plate for 24 hrs, and then treated with compounds for 72 hours (37° C., 5% CO2). Cell proliferation was measured using CellTiter-Glo luciferase-based ATP detection assay (Promega) following the manufactures's protocol. IC50 determinations were performed using GraphPad Prism software (GraphPad, Inc., San Diego, Calif.).

KG-1 cell (OP2-FGFR1) = details: Homo sapiens, anti-cell proliferation, 72 hours
Description: (§3) Cell Lines and Cell Culture:
(§4) Colorectal cell line KM 12 (harboring endogenous TPM3-TRKA fusion gene) was obtained from NCI. Acute myelogenous cell line KG-1 (harboring endogenous OP2-FGFR1 fusion gene) were purchased from ATCC.
as §1, §2

KM12 (TPM3-TRKA) = details: Homo sapiens, anti-cell proliferation, 72 hours
Description: as §3, §4, §1, §2

T1 sequence (Q9UM73 whole entry, stated change not applied, the tested form may be a part): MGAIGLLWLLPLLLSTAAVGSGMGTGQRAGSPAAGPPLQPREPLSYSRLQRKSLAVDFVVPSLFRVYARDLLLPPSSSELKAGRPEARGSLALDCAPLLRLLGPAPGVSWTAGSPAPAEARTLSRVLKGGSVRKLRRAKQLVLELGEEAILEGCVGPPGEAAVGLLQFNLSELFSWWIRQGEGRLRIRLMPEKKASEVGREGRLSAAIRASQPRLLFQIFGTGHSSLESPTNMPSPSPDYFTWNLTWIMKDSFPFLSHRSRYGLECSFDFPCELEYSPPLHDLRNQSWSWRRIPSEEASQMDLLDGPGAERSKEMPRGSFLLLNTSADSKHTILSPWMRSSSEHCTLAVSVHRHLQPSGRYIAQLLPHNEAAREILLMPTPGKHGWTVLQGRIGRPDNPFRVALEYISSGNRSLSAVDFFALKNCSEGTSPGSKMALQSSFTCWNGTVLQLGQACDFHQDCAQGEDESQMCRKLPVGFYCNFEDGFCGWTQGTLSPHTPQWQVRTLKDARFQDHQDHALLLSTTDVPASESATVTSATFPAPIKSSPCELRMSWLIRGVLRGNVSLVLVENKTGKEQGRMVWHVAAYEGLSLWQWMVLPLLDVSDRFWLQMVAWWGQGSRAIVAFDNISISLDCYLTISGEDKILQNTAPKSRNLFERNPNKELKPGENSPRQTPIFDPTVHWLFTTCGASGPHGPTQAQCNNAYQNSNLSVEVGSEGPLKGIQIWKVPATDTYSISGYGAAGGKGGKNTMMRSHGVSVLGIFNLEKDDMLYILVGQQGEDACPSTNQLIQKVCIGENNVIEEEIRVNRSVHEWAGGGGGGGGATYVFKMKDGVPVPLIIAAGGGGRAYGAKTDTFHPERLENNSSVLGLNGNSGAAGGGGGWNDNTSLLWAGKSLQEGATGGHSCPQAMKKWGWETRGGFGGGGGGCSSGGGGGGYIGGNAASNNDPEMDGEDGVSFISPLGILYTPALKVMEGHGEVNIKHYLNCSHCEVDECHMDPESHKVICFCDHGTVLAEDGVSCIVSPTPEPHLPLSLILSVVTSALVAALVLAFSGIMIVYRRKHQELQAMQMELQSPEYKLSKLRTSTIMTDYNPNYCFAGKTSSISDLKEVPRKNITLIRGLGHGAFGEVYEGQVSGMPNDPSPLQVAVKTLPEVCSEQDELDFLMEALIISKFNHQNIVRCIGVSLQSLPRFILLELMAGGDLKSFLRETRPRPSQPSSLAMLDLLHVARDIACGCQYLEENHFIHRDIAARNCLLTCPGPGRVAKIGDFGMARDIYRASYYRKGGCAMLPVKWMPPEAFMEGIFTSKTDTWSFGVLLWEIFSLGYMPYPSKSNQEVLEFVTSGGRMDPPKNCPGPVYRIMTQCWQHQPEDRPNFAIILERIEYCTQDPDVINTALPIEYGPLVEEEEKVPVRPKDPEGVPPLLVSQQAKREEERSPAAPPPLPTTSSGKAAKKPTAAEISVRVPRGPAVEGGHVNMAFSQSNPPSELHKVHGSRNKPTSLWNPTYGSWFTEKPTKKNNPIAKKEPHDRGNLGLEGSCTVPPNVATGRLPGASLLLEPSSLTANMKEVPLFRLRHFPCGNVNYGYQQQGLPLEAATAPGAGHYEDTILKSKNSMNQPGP

## C[C@@H]1COc2ncc(F)cc2CN2c3nc4c(cnn4cc3OC[C@H]2CN=[N+]=[N-])C(=O)N1 [Compound 43, (4R,13R)-4-(azidomethyl)-8-fluoro-13-methyl-3,4,13,14-tetrahydro-6H-18,1-(metheno)-[1,4]oxazino[3,4-i]pyrazolo[4,3-f]pyrido[3,2-l][1,4,8,10]oxatriaza-cyclotridecin-15(12H)-one]
BaF3 EML4-ALK
  pIC50: 7.07
KG-1 cell (OP2-FGFR1)
  pIC50: 7.51
KM12 (TPM3-TRKA)
  pIC50: 9.70

## C[C@H]1CNC(=O)c2cnn3cc4c(nc23)N(CCCO4)Cc2cc(F)ccc2O1 [Compound 17, (13S)-9-fluoro-13-methyl-4,5,14,15-tetrahydro-3H,7H-19,1-(metheno)[1,4]oxazepino-[3,4-i]pyrazolo[4,3-f][1,4,8,10]-benzoxatriazacyclotridecin-16(13H)-one]
BaF3 EML4-ALK
  pIC50: 5.58
KG-1 cell (OP2-FGFR1)
  pIC50: 5.30
KM12 (TPM3-TRKA)
  pIC50: > 9.70

## C[C@@H]1COc2ncc(F)cc2CN2c3nc4c(cnn4cc3OC[C@H]2C)C(=O)N1 [Compound 14, (4R,13R)-8-fluoro-4,13-dimethyl-3,4,13,14-tetrahydro-6H-18,1-(metheno)[1,4]oxazino[3,4-i]pyrazolo[4,3-f]pyrido[3,2-l][1,4,8,10]oxatriazacyclotridecin-15(12H)-one]
BaF3 EML4-ALK
  pIC50: 7.86
KG-1 cell (OP2-FGFR1)
  pIC50: 7.47
KM12 (TPM3-TRKA)
  pIC50: > 9.70

## C[C@H]1CNC(=O)c2cnn3cc4c(nc23)N(Cc2cc(F)cnc2O1)C1(CCC1)CO4 [Compound 56, (12′S)-8′-fluoro-12′-methyl-3′H,6′H,12′H,13′H,14′H,15′H-spiro[cyclobutane-1,4′-[2,11]-dioxa[5,10,14,17,18,19]-hexaaza[18,1](metheno)[1,4]-oxazino[3,4-i]pyrazolo[4,3-f]-pyrido[3,2-l][1,4,8,10]oxatriaza-cyclotridecin]-15′-one]
BaF3 EML4-ALK
  pIC50: 6.04
KG-1 cell (OP2-FGFR1)
  pIC50: 5.52
KM12 (TPM3-TRKA)
  pIC50: > 9.70

## CC[C@@H]1COc2cn3ncc4c3nc2N1Cc1cc(F)cnc1OCC1(CCC1)NC4=O [Compound 73, (4′R)-4′-ethyl-8′-fluoro-3′H,4′H,6′H,12′H,14′H,15′H-spiro[cyclobutane-1,13’-[2,11]-dioxa[5,10,14,17,18,19]hexaaza-[18,1](metheno)[1,4]oxazino[3,4-i]pyrazolo[4,3-f]pyrido[3,2-l] [1,4,8,10]oxatriazacyclotridecin]-15′-one]
BaF3 EML4-ALK
  pIC50: 7.03
KG-1 cell (OP2-FGFR1)
  pIC50: 8.30
KM12 (TPM3-TRKA)
  pIC50: > 9.70

## C[C@@H]1COc2cn3ncc4c3nc2N1Cc1cc(F)cnc1OCC(C)(C)NC4=O [Compound 40, (4R)-8-fluoro-4,13,13-trimethyl-3,4,13,14-tetrahydro-6H-18,1-(metheno)[1,4]oxazino[3,4-i]-pyrazolo[4,3-f]pyrido[3,2-l] [1,4,8,10]oxatriazacyclotridecin-15(12H)-one]
BaF3 EML4-ALK
  pIC50: > 9.70
KG-1 cell (OP2-FGFR1)
  pIC50: 9.70
KM12 (TPM3-TRKA)
  pIC50: > 9.70

## C[C@H]1CNC(=O)c2cnn3cc4c(nc23)N(Cc2cc(F)cnc2O1)C1(CC1)CO4 [Compound 27, (12′S)-8′-fluoro-12′-methyl-3′H,6′H,12′H,13′H,14′H,15′H-spiro[cyclopropane-1,4′-[2,11]-dioxa[5,10,14,17,18,19]hexaaza-[18,1](metheno)[1,4]oxazino[3,4-i]pyrazolo[4,3-f]pyrido[3,2-l] [1,4,8,10]oxatriazacyclotridecin]-15′-one]
BaF3 EML4-ALK
  pIC50: 6.22
KG-1 cell (OP2-FGFR1)
  pIC50: 5.45
KM12 (TPM3-TRKA)
  pIC50: > 9.70

## CC1CCNC(=O)c2cnn3cc4c(nc23)N(Cc2cc(F)cnc2O1)[C@H](C)CO4 (stereo partly drawn) [Compound 69, (16R)-12-fluoro-8,16-dimethyl-5,6,7,8,16,17-hexahydro-4H,14H-1,19-(metheno)[1,4]oxazino[4,3-e]pyrazolo[3,4-h]pyrido[2,3-b] [1,5,7,11]oxatriazacyclotetradecin-4-one]
BaF3 EML4-ALK
  pIC50: 7.06
KG-1 cell (OP2-FGFR1)
  pIC50: 7.63
KM12 (TPM3-TRKA)
  pIC50: > 9.70

## COC[C@H]1COc2ncc(F)cc2CN2c3nc4c(cnn4cc3OC[C@H]2C)C(=O)N1 [Compound 92, (4R,13S)-8-fluoro-13-(methoxy-methyl)-4-methyl-3,4,13,14-tetrahydro-6H-18,1-(metheno)-[1,4]oxazino[3,4-i]pyrazolo[4,3-f]pyrido[3,2-l][1,4,8,10]oxatriaza-cyclotridecin-15(12H)-one]
BaF3 EML4-ALK
  pIC50: 5.70
KG-1 cell (OP2-FGFR1)
  pIC50: 6.48
KM12 (TPM3-TRKA)
  pIC50: 8.24

## C[C@@H]1COc2cn3ncc4c3nc2N(Cc2cc(F)ccc2O[C@@H](C)CNC4=O)C1 [Compound 20, (4S,13S)-9-fluoro-4,13-dimethyl-4,5,14,15-tetrahydro-3H,7H-19,1-(metheno)[1,4]oxazepino[3,4-i]-pyrazolo[4,3-f][1,4,8,10]benzo-xatriazacyclotridecin-16(13H)-one]
BaF3 EML4-ALK
  pIC50: 5.31
KG-1 cell (OP2-FGFR1)
  pIC50: 5.62
KM12 (TPM3-TRKA)
  pIC50: 8.29

## CO[C@@H]1COc2cn3ncc4c3nc2N(Cc2cc(F)cnc2O[C@@H](C)CNC4=O)C1 [Compound 91, (4S,13S)-9-fluoro-4-methoxy-13-methyl-4,5,14,15-tetrahydro-3H,7H-19,1-(metheno)[1,4]oxazepino[3,4-i]pyrazolo[4,3-f]pyrido[3,2-1][1,4,8,10]oxatriazacyclotridecin-16(13H)-one]
BaF3 EML4-ALK
  pIC50: 6.63
KG-1 cell (OP2-FGFR1)
  pIC50: 6.00
KM12 (TPM3-TRKA)
  pIC50: 7.19

## C[C@@H]1COc2ncc(F)cc2CN2c3nc4c(cnn4cc3OC[C@H]2CC#N)C(=O)N1 [Compound 41, [(4R,13R)-8-fluoro-13-methyl-15-oxo-3,4,12,13,14,15-hexahydro-6H-18,1-(metheno)[1,4]oxazino[3,4-i]pyrazolo[4,3-f]pyrido[3,2-][1,4,8,10]oxatriazacyclotridecin-4-yl]acetonitrile]
BaF3 EML4-ALK
  pIC50: 5.93
KG-1 cell (OP2-FGFR1)
  pIC50: 6.21
KM12 (TPM3-TRKA)
  pIC50: 9.30

## C[C@@H]1COc2ncc(F)cc2CN2C[C@H](O)COc3cn4ncc(c4nc32)C(=O)N1 [Compound 61, (4S,14R)-9-fluoro-4-hydroxy-14-methyl-4,5,14,15-tetrahydro-3H,7H-19,1-(methano)[1,4]-oxazepino[3,4-i]pyrazolo[4,3-f]-pyrido[3,2-l][1,4,8,10]oxatriaza-cyclotridecin-16(13H)-one]
BaF3 EML4-ALK
  pIC50: 5.40
KG-1 cell (OP2-FGFR1)
  pIC50: 6.32
KM12 (TPM3-TRKA)
  pIC50: 6.32

## C[C@@H]1COc2ncc(F)cc2[C@H](C)N2c3nc4c(cnn4cc3OC[C@H]2C)C(=O)N1 [Compound 84, (4R,6S,13R)-8-fluoro-4,6,13-trimethyl-3,4,13,14-tetrahydro-6H-18,1-(metheno)[1,4]oxazino[3,4-i]pyrazolo[4,3-f]pyrido[3,2-l][1,4,8,10]oxatriazacyclotridecin-15(12H)-one]
BaF3 EML4-ALK
  pIC50: 6.44
KG-1 cell (OP2-FGFR1)
  pIC50: 6.89
KM12 (TPM3-TRKA)
  pIC50: > 9.70

## C[C@@H]1COc2cn3ncc4c3nc2N1Cc1cc(F)cnc1OC[C@H](CO)NC4=O [Compound 82, (4R,13S)-8-fluoro-13-(hydroxy-methyl)-4-methyl-3,4,13,14-tetrahydro-6H-18,1-(metheno)-[1,4]oxazino[3,4-i]pyrazolo[4,3-f]pyrido[3,2-l][1,4,8,10]oxatriaza-cyclotridecin-15(12H)-one]
BaF3 EML4-ALK
  pIC50: 6.18
KG-1 cell (OP2-FGFR1)
  pIC50: 7.43
KM12 (TPM3-TRKA)
  pIC50: > 9.70

## C[C@H]1CNC(=O)c2cnn3cc4c(nc23)N(Cc2cc(F)cnc2O1)C[C@@H](F)CO4 [Compound 93, (4R,13S)-4,9-difluoro-13-methyl-4,5,14,15-tetrahydro-3H,7H-19,1-(metheno)[1,4]oxazepino[3,4-i]-pyrazolo[4,3-f]pyrido[3,2-l] [1,4,8,10]oxatriazacyclotridecin-16(13H)-one]
BaF3 EML4-ALK
  pIC50: < 5.00
KG-1 cell (OP2-FGFR1)
  pIC50: < 5.00
KM12 (TPM3-TRKA)
  pIC50: 6.72

## C[C@@H]1COc2cn3ncc4c3nc2N(Cc2cc(F)ccc2OC[C@@H](C)NC4=O)C1 [Compound 31, (4S,14R)-9-fluoro-4,14-dimethyl-4,5,14,15-tetrahydro-3H,7H-19,1-(metheno)[1,4]oxazepino[3,4-i]-pyrazolo[4,3-f][1,4,8,10]benzo-xatriazacyclotridecin-16(13H)-one]
BaF3 EML4-ALK
  pIC50: 5.88
KG-1 cell (OP2-FGFR1)
  pIC50: 6.11
KM12 (TPM3-TRKA)
  pIC50: > 9.70

## CC[C@@H]1COc2cn3ncc4c3nc2N1Cc1cc(F)ccc1OC[C@@H](C)NC4=O [Compound 13, (4R,13R)-4-ethyl-8-fluoro-13-methyl-3,4,13,14-tetrahydro-6H-18,1-(metheno)[1,4]oxazino[3,4-i]pyrazolo[4,3-f][1,4,8,10]benzo-xatriazacyclotridecin-15(12H)-one]
BaF3 EML4-ALK
  pIC50: 7.55
KG-1 cell (OP2-FGFR1)
  pIC50: 6.84
KM12 (TPM3-TRKA)
  pIC50: 9.70

## CC[C@@H]1COc2cn3ncc4c3nc2N1Cc1cc(F)cnc1OCC[C@H](C)NC4=O [Compound 75, (6S,16R)-16-ethyl-12-fluoro-6-methyl-5,6,7,8,16,17-hexahydro-4H,14H-1,19-(metheno)[1,4]-oxazino[4,3-e]pyrazolo[3,4-h]-pyrido[2,3-b][1,5,7,11]oxatriaza-cyclotetradecin-4-one]
BaF3 EML4-ALK
  pIC50: 7.70
KG-1 cell (OP2-FGFR1)
  pIC50: 8.01
KM12 (TPM3-TRKA)
  pIC50: > 9.70
